In BindingDB's records for doi:10.3109/14756366.2011.584535 (Balikesir University, 2012):

How the values were obtained:
[1] = molecular target: Carbonic anhydrase 2 (Homo sapiens, UniProt P00918); assay: CA Enzyme Assay
Experimental: (§1) CA activity was measured by the Maren method which is based on determination of the time required for the pH to decrease from 10.0 to 7.4 due to CO2 hydration [Maren et al., J. Pharm. Exp. Ther., 130:2629-2634].

[2] = molecular target: Carbonic anhydrase 1 (Homo sapiens, UniProt P00915); assay: CA Enzyme Assay
Sequence of Carbonic anhydrase 1 (P00915 whole entry): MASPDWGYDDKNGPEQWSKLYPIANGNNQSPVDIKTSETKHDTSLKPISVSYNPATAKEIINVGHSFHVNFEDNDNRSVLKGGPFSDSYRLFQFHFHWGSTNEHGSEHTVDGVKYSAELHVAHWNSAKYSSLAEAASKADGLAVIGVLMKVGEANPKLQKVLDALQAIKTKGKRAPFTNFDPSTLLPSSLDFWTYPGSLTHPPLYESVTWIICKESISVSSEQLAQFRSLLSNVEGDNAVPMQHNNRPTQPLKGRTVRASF
Experimental: as §1

SMILES	IC50 [1] [µM]	IC50 [2] [µM]
CC12C=CC3=C4CCC(=O)C=C4CCC3C1CCC2O (stereo unspecified) [Trenbolone (2)]	159	55
CC/C(=C(/CC)c1ccc(O)cc1)c1ccc(O)cc1	89	94
CC1CCCC(O)CCCCCc2cc(O)cc(O)c2C(=O)O1 (stereo unspecified) [Zeranol (4)]	101	898
